Measured values from patent US20200115314A1, “METHOD OF PRODUCING PLASTICIZER AND REDUCING ENERGY CONSUMPTION” (SABIC Global Technologies B.V., priority 2017, published 2020).

Assays:
Format in all cases: physicochemical
[1] = Solubility tests for trimellitic anhydride in 2-ethyl hexanol
Protocol: Tri octyl trimellitate (TOTM) is one of the most commonly used non-phthalate based plasticizers. Tri octyl trimellitate is produced via esterification reaction between trimellitic anhydride (TMA) and 2-ethyl hexanol (2-EH). According to embodiments of the invention, trimellitic anhydride may be dissolved in 2-ethyl hexanol before it is transferred to an esterification reactor. Thus, the solubility of trimellitic anhydride in 2-ethyl hexanol was tested under various molar ratios of trimellitic anhydride to 2-ethyl hexanol. In this experiment, a hundred grams of trimellitic anhydride was initially added to 2-ethyl hexanol at a molar ratio of 1:1 to form a mixture. The temperature of the mixture was controlled in a range of 110° C. to 150 ° C. Additional 2-ethyl hexanol was gradually added to the mixture to change the molar ratio of trimellitic anhydride to 2-ethyl hexanol until complete dissolution of trimellitic anhydride in 2-ethyl hexanol was observed. The amount of added 2-ethyl hexanol was recorded to obtain a molar ratio needed for the complete dissolution of trimellitic anhydride.

[2] = as above; remark: listed apart in the source
[3] = Repeated solubility test for trimellitic anhydride in 2-ethyl hexanol
Protocol: The temperature range for complete dissolution of trimellitic anhydride was further repeated by varying the temperature in a range of 110° C. to 149° C. when the molar ratio of trimellitic anhydride to 2-ethyl hexanol was kept at 1:3.25. About 100 g of trimellitic anhydride was used. When a complete dissolution of trimellitic anhydride was observed, the amount of water formed during the dissolution and total time consumed for dissolution are recorded.

Dissolution ([1]; TMA:2-EH molar ratio 1:1, 110-150 °C): No | Dissolution ([1]; TMA:2-EH molar ratio 1:2, 110-150 °C): No | Dissolution ([1]; TMA:2-EH molar ratio 1:2.5, 110-150 °C): No | Dissolution ([1]; TMA:2-EH molar ratio 1:3, 110-150 °C): No | Dissolution ([1]; TMA:2-EH molar ratio 1:3.25, 110-150 °C): Yes | Temperature at which water formation starts ([2]; TMA:2-EH molar ratio 1:1, no catalyst): at 135 °C | Temperature at which water formation starts ([2]; TMA:2-EH molar ratio 1:2, no catalyst): at 135 °C | Temperature at which water formation starts ([2]; TMA:2-EH molar ratio 1:2.5, no catalyst): at 135 °C | Temperature at which water formation starts ([2]; TMA:2-EH molar ratio 1:3, no catalyst): at 135 °C | Temperature at which water formation started ([2]; at each molar ratio, without catalysts): 135 °C | Time for complete dissolution ([3]; about 149 °C, molar ratio about 1:3.25): 20 to 30 min | Dissolution ([3]; in 2-ethyl hexanol, TMA:2-EH molar ratio 1:3.25, 110-149 °C): Yes | Temperature at which the mixture becomes milky ([3]; on cooling, molar ratio 1:3.25): 60 °C | Temperature at which turbidity starts forming in the solution ([3]; on cooling, molar ratio 1:3.25): 65 °C
Structure (SMILES): O=C(O)c1ccc2c(c1)C(=O)OC2=O [trimellitic anhydride]
